Test results published in patent US9297798B2, “Therapeutic approach for polyglutamine degeneration” (The Chinese University of Hong Kong, priority 2013, dated 2016).

Experiments:
DsRedCAG100 RNA toxicity = assay: Pseudopupil assay in DsRedCAG100 Drosophila fed with peptide; type: in vivo; conditions: larvae fed with synthetic peptide at 100 μM until adulthood
Method: FIG. 3. Illustrates an in vivo reduction in expanded CAG-RNA toxicity by feeding Drosophila fly lines that overexpress DsRedCAG100 RNA with synthetic Nucleolin P3 peptide. DsRedCAG0 (A-C) and DsRedCAG100 (D-F) F1 larvae were fed with 100 μM of NCL P3 peptide until adulthood. Representative images of rhabdomeres (light-sensing organelles in eyes) taken from 1 day-old adult flies are shown. The average number of rhabdomeres per ommatidium (single eye unit of the adult flies) is shown at the bottom left hand corner of each image, and “+/−” represents s.e.m. from 3 independent sets of experiments. “NCL P3WT” represents wildtype NCL P3 peptide while “NCL P3MTc” represents mutant c NCL P3 peptide.
DsRedCAG RNA was expressed in Drosophila fly eyes. DsRedCAG0 (FIGS. 3A-C) and DsRedCAG100 (FIGS. 3D-F) using a pseudopupil assay (Chan W M, et al. 2011). F1 larvae were fed with 100 μM of NCL P3 peptides until adulthood. The overexpression caused the integrity of the internal eye structure to deteriorate, as indicated by the reduced number of rhabdomeres which are subcellular organelles responsible for phototransduction (FIG. 3D). DsRedCAG100 larvae were fed with synthetic P3MTc (FIG. 3E) or P3 (FIG. 3F) peptide at 100 μM.

[1] = test system: pre-45s rRNA transcription in MJDCAG78-expressing HEK293 cells; assay: Real-time PCR of pre-45s rRNA in MJDCAG78-expressing HEK293 cells; type: cell-based; conditions: MJDCAG78-expressing HEK293 cells (FIG. 5D)
From the text: (§1) FIG. 5. Depicts the distinct stress responses induced by toxic expanded CAG-RNA and polyQ protein which can be differentiated by pre-rRNA and GRP78/BiP gene expression respectively in transgenic Drosophila and mammalian cell models. […] “dpe” denotes days post eclosion. The CAG repeat sequence of the DsRedCAG constructs is located in the 3′ UTR, thus expanded CAG RNA is produced but not expanded polyglutamine protein. Only RNA toxicity is observed in the DsRedCAG model. […] The MJDCAG constructs express both expanded CAG RNA and polyglutamine protein. […] The MJDCAA/G construct only generates polyQ protein toxicity because the continuity of the expanded CAG sequence is disrupted which disrupts RNA toxicity. (D) Real-time PCR analysis of the effects of RNA and protein toxicity peptidylic inhibitors on pre-45s rRNA and GRP78/BiP expression in an MJD disease cell model. HEK293 cells expressing a polynucleotide encoding MJDCAG78 reduced pre-45s rRNA transcription and induced GRP78/BiP expression. […] Cells expressing a polynucleotide encoding MJDCAG27 served as a control. “SCR” and “P3MT5” represent scrambled QBP1 and mutant P3 peptides respectively.

[2] = test system: GRP78/BiP expression in MJDCAG78-expressing HEK293 cells; assay: Real-time PCR of GRP78/BiP in MJDCAG78-expressing HEK293 cells; type: cell-based; conditions: MJDCAG78-expressing HEK293 cells (FIG. 5D)
From the text: as §1

[3] = test system: Drosophila polyQ disease model; assay: Pseudopupil assay in transgenic Drosophila polyQ model (RNA and protein toxicities); type: in vivo; conditions: third instar larvae incubated with peptides (100 μM each); pseudopupil assay on 0-3 day-old adult flies
Method: FIG. 7. (A) A co-treatment approach to target RNA and protein toxicities of polyQ diseases. (B) The combined effect of P3 and QBP1 peptides on suppressing neurodegeneration in a transgenic Drosophila polyQ model. Third instar larvae were incubated with corresponding peptides (100 μM each). Pseudopupil assay was performed on 0-3 day-old adult flies. The average number of rhabdomeres per ommatidium (single eye unit of the adult flies) is shown at the bottom left hand corner of each image. (C) Statistical analysis of (B). “WT” and “MT5” represent wildtype and mutant P3 peptides respectively. “SCR” denotes a scrambled sequence of QBP1. * represents P<0.05; ** represents P<0.01. Error bars represent standard deviation. Because both expanded CAG RNA and polyQ protein contribute to neurotoxicity, a therapeutic strategy that simultaneously targets these toxic species would be ideal for treatment. A similar combined therapeutic approach was recently reported in cancer treatment (Suzuki, et al., 2013), indicating its therapeutic potential of this strategy. We have performed a pilot study to simultaneously target both the RNA and protein toxicities using a well-studied protein toxicity peptide QBP1 (Nagai, et al., 2000) and P3, and has obtained satisfactory suppression (FIG. 7A).

polyQ protein toxicity = conditions: reported in literature, in vitro and in vivo; cited from earlier work
[4] = test system: interaction between purified NCL and expanded CAG RNA (NCL: CAG78 RNA complex); assay: Competition assay: GST-NCL / CAG78 RNA pull-down on glutathione beads, bound RNA by RT-PCR; type: binding
From the text: Purified GST-nucleolin (GST-NCL) protein was purchased from Abnova (H00004691-P01), and the control GST protein was expressed and purified as previously described (Tsoi H, et al. 2011). The CAG78 (SEQ ID NO:18) and CUG78 (SEQ ID NOP:19) RNAs were synthesized from a pcDNA3.1-MJDCAG78 PCR product, using the MEGAscript kit (Ambion) with the following primer pairs: T7CAGF, 5′-TAA AC GACTCACTATAGGGAGAAGAAGCCTACTTTGAAAAA-3′ (SEQ ID NO:20) and CAGR, 5′-CTG TCC TGA TAG GTC CCG-3′ (SEQ ID NO:21) for CAG78 (SEQ ID NO:18); and T7CUGF, 5′-TAATACGACTCACTATAGGGAGAAGACACGACTATCCAGGGC-3′ (SEQ ID NO:22) and CUGR, 5′-CTT CGG ATG AAA CTT TTT-3′ (SEQ ID NO:23) for CUG78 (SEQ ID NO:19). To perform in vitro protein-RNA interaction, 50 ng of GST protein was first captured by glutathione Sepharose beads (GE Healthcare). The purified in vitro transcribed RNA (10 pmol) was allowed to bind with GST-coated glutathione Sepharose beads and the mixture was incubated at 4° C. overnight in a 500-μL reaction volume. Before elution, the protein-RNA mixture was washed three times with 1 mL of binding buffer [20 mM Hepes, pH 7.4, 150 mM NaCl, 5 mM MgCl2, 0.5% Nonidet P-40, 40 units RNAsin (Promega), and 1 mg/mL yeast tRNA (Sigma)]. Bound RNA was then extracted for RT-PCR as described in Tsoi H, et al. 2011.
These peptides were then tested for the ability to interact with expanded CAG RNA. […]

| Substance | suppression of DsRedCAG100 RNA toxicity (pseudopupil assay score) (DsRedCAG100 RNA toxicity) | pre-45s rRNA transcription [1] | GRP78/BiP induction [2] | suppression of neurodegeneration in Drosophila polyQ disease model [3] | suppression of polyQ protein toxicity (polyQ protein toxicity) | disruption of the interaction between purified NCL and expanded CAG RNA, dose dependence ([4]; P3 at 10, 50, 100, 250, and 750 μM with NCL and CAG78 RNA (FIG. 1D)) | interference with the interaction between purified NCL and expanded CAG RNA ([4]; Ten μM of each peptide with purified GST-NCL and CAG78 RNA (FIG. 1C)) |
| --- | --- | --- | --- | --- | --- | --- | --- |
| DGKSKGIAAIEAK (synthetic nucleolin RNA recognition motif (RRM), RRM domain of nucleolin, RRM-related sequence core amino acid sequence P3MT5/MTc) [Peptide P3MT5] | did not exert any rescuing effect | did not demonstrate such suppressive effects | did not demonstrate such suppressive effects |  |  |  |  |
| S N W K W W P G I F D (SNWKWWPGIFD; synthetic polyQ-mediated toxicity inhibitor peptide QBP1) [reference compound] |  | restored pre-45s rRNA transcription | suppressed GRP78/BiP induction | substantial suppression | capable of suppressing polyQ protein toxicity both in vitro and in vivo |  |  |
| VPQNQNGKSKGYAF (synthetic nucleolin RNA recognition motif (RRM), RRM domain of nucleolin, RRM-related sequence core amino acid sequence P5) [Peptide P5] |  |  |  |  |  | able to interfere with the interaction between purified NCL and expanded CAG RNA | able to interfere with the interaction between purified NCL and expanded CAG RNA |
